Key:
[1] = degradation time in vivo of ω-oxidation blocked analogue
Source text: ω-oxidation is believed to be the main pathway for degradation of the fatty acid entities as described with a block in the X position. Experiments were thus performed where R′ was changed to block ω-oxidation, by introducing a triple bond at the methyl end of the fatty acid analogue. […] This is important for the use of the fatty acid entities in pharmaceutical preparation, as it may potentiate the effects of the β-oxidizable fatty acid entities by further slowing down their breakdown.

[2] = tested on: mitochondrial β-oxidation in the liver; assay: activity of mitochondrial β-oxidation in the liver of fatty acid analogues; format: biochemical
Source text: Although all fatty acid anagoges with an odd positioning of the β-oxidation blocker X away from the carboxylic end block β-oxidation, the extent of their biological effect may be variable. This is due to the difference in biological degradation time of the various compounds. The inventors have done experiments to show the effect of moving X further from the carboxylic fatty acid end. In these experiments the activity (in nmol/min/mg/protein) of mitochondrial β-oxidation in the liver of fatty acid analogues was measured with sulphur in the 3, 5 and 7 positions relative to the carboxyl end. The activities were 0.81 for sulphur in the 3rd position, 0.61 for sulphur in the 5th position, 0.58 for sulphur in the 7th position, and 0.47 for palmitic acid, the non β-oxidation blocking control. […] However, as the decline is great for going from the 3rd to 5th position, but small going from the 5th to 7th position, it is reasonable to assume that this decline will continue to be less as one moves out the chain and thus that it will be very far out indeed before no effect (compared to the control) is seen at all.

Row | SMILES | degradation time in vivo [1] | activity of mitochondrial β-oxidation in the liver [2] [nmol/min/mg/protein]
1 | CC#CCCCCCCCCCCCSCC [3-thia-15-heptadecyn] | substantially increased degradation time in vivo | 
2 | CCCCCCCCCCCCCCCC(=O)O [palmitic acid] |  | 0.47
